“And” between values parts separate entries of the source, which are not always exact repeats. Identical values can stand only once.
What was measured:
[1] = system: human MDR1 (ABCB1, P-glycoprotein); experiment: Bidirectional permeability in MDR1-MDCK cells; assay type: in vitro ADME; conditions: dog, MDCK-MDR1, 150-min incubation at 37°C
Protocol: (§1) The bidirectional permeability (Papp) of SMB-1 was examined in an MDCK cell system expressing human MDR1 [ABCB1, P-glycoprotein (P-gp)] as described previously. Permeation of the test compound from apical (A) to basal (B) direction or B to A direction was determined in triplicate over a 150-min incubation at 37°C. The efflux ratio was calculated as the ratio between Papp (B to A) and Papp (A to B). Free fraction of SMB-1 was determined using a standard equilibrium dialysis methodology with freshly isolated rat brain homogenate or plasma. Equilibrium dialysis was performed by incubating at 37°C for 5 h in triplicates.

[2] = system: MDCK cell system expressing human MDR1 [ABCB1, P-glycoprotein (P-gp)]; experiment: Bidirectional permeability in MDR1-MDCK cells; assay type: in vitro ADME; conditions: judged from the efflux ratio in MDR1-MDCK cells
Protocol: as §1

KV7.2 = molecular target: T1, KV7.2 (Homo sapiens, UniProt O43526); experiment: Two-electrode voltage-clamp of KV7.2 expressed in Xenopus laevis oocytes; assay type: cell-based
T1 construct: expressed in transfected cells; host or cells: Xenopus laevis oocytes injected with cRNA (pGEM-HE vector)
Protocol: Point mutations were introduced using mutated oligonucleotide extension (PfuTurbo Polymerase, Stratagene, La Jolla, CA, USA) from a plasmid template harboring the cDNA of interest, digested with DpnI (Fermentas, St. Leon-Roth, Germany) and transformed into E.coli XL1 Blue cells. The construct was verified by complete DNA sequencing of the cDNA insert. cRNA was prepared from linearized human wild-type (WT) and mutant KV7 channels in the pGEM-HE vector using the T7 m-Message Machine kit (Ambion, Austin, TX, USA) according to the manufacturer's instructions.
Extraction of Xenopus laevis oocytes and injection of cRNA was performed as described previously. Oocytes were kept in Modified Barth's Saline (in mM: 88 NaCl, 1 KCl, 2.4 NaHCO3, 0.41 CaCl2, 0.82 MgSO4, 0.3 Ca(NO3)2, 15 HEPES, pH 7.4 supplemented with 100 U/mL penicillin and 100 µg/mL streptomycin) at 18°C, and currents were recorded after 2-7 days. The care of Xenopus laevis and the oocyte extraction procedure were performed according to national guidelines and approved by the Danish Animal Experiments Inspectorate.
KV7 currents in Xenopus laevis oocytes were recorded using two-electrode voltage-clamp at room temperature in Ringer buffer (in mM: 115 NaCl, 2.5 KCl, 1.8 CaCl2, 0.1 MgCl2, 10 HEPES, pH 7.4) as described previously. Data was acquired using pCLAMP 10.2 software (Molecular Devices, CA, USA) and analyzed using pCLAMP 10.2 and GraphPad Prism 4.0 (GraphPad Software Inc., CA, USA). Currents were elicited from a holding potential of −80 mV by 5 s steps to potentials between −100 and +50 mV in 10 mV increments, followed by a 2 s step to −120 mV.
SMB-1 was dissolved in dimethyl sulfoxide (DMSO) to obtain a concentrated stock solution. On the day of experiments the stock solution was thawed and diluted in Ringer buffer to the final concentrations. A concentration of 10 µM SMB-1 was used unless indicated otherwise. The final DMSO concentration never exceeded 0.1%.
Current – voltage (I–V) relationship curves were generated by normalizing the steady-state peak current measured at potentials between −100 and +50 mV to the current measured at +50 mV in control recordings and plotting the values against the test potential.
The voltage-dependence of activation was determined from tail current analysis using the current measured immediately after the transient capacitive current after stepping to −120 mV from potentials between −100 mV and +50 mV. Data was normalized to extend from 0–1 and the tail current-voltage relationship was fitted to the Boltzmann equation: [drawing 1] (Equation\;1) where I max is the maximum tail current, I min is the minimum tail current, V0.5 is the potential for half maximal activation and k is the slope factor. A V0.5 was calculated for each individual experiment and statistical significance was estimated by paired two-tailed Student's t-test.
Activation kinetics for KV7.2 and KV7.2-W236L was determined by fitting the traces recorded at potentials between −40 and +40 mV to a double exponential function: [drawing 2] (Equation\;2) where I(t) is the current at time t, Ifast and Islow are the current amplitudes at infinite times, and τfast and τslow are the time constants of the fast and slow components, respectively.
For investigation of deactivation kinetics the tail current traces recorded at −120 mV when stepping from the channels' respective ∼V0.5 were fitted to a single exponential function (Eq. 3).
Dose-response curves from electrophysiological experiments were made by plotting the increase in steady state current at +50 mV expressed in percentages as a function of drug concentration. The data were then analyzed by non-linear regression and fitted to the equation for sigmoidal dose-response with variable slope: [drawing 4] (Equation\;4) where R1 is the initial response, R2 is the maximum response, X is the logarithm of the drug concentration and nH is the slope (Hill coefficient) of the curve.

T1 sequence (O43526 whole entry): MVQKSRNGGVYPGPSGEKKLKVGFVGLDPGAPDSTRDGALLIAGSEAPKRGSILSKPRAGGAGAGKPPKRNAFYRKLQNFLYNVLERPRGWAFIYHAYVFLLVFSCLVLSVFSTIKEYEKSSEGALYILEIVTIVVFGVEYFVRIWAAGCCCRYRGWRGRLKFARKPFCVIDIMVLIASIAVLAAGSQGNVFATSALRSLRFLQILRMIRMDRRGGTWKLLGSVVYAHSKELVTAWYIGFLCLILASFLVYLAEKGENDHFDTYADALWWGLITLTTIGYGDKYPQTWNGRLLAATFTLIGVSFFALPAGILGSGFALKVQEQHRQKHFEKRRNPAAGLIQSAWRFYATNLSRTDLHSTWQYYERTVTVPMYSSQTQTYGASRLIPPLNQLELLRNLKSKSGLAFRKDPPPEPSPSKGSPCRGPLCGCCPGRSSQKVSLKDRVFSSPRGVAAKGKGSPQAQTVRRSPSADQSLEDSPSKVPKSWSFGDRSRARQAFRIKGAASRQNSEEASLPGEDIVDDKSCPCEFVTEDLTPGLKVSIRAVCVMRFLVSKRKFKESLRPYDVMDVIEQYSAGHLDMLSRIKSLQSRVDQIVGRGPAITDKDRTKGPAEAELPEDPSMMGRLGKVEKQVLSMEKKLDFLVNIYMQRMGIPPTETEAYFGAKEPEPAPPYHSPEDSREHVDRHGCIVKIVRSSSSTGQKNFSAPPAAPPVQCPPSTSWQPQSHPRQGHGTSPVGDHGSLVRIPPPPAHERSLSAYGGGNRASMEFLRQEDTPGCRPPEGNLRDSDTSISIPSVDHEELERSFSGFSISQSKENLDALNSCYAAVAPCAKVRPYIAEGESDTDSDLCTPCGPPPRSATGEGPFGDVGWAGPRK

Papp at 150 min ([1]; triplicate, read-out: membrane permeability (Papp)): 2.5 ± 0.3 ×10⁻⁶ cm/s | efflux ratio at 150 min ([1]; read-out: efflux ratio, Papp (B to A) / Papp (A to B)): 0.7 | substrate for the efflux transporter P-gp [2]: not identified as a substrate | effect on τact_fast (KV7.2; 10 µM): did not affect | remaining activity at 10 µM (KV7.2; 10 µM SMB-1, +50 mV, n = 9, read-out: current amplitude, % of control): 81.7 ± 3.1% | effect on τact_slow (KV7.2; 10 µM, at −20 mV and above): increased | τdeact, deactivation time constant in presence of compound (KV7.2; 10 µM, control 20.2±1.4 ms, n = 7, p<0.001): 37.3 ± 3.3 ms | V0.5, voltage-dependence of activation in presence of compound (KV7.2; 10 µM, control −22.5±2.2 mV, n = 8, p<0.05): -18.0±2.7 mV | IC50 (KV7.2; current amplitude at +50 mV, 0.4, 2, 10 and 50 µM, n = 5): ~7.4 µM and 7.4 µM
SMILES: C[C@@H](c1ccc2c(c1)N(CC1CC1)CCO2)N(C)C(=O)/C=C/c1ccccc1F [SMB-1, (E)-N-[(S)-1-(4-Cyclopropylmethyl-3,4-dihydro-2H-1,4-benzoxazin-6-yl)-ethyl]-3-(2-fluoro-phenyl)-N-methyl-acrylamide]
